In patent US8466309B2, “Amino acid derivatives, method for preparing same, and therapeutic use thereof” (priority 2008, dated 2013):

Key:
Assay type in all cases: in vivo
male OF1 mice [1] = assay: Von Frey test: mechanical allodynia after partial ligature of the sciatic nerve; conditions: oral 50 mg/kg, maximum at 60 min, day 14 post-surgery
Description: (§1) This test was described in detail by A. B. Malmberg and A. I. Basbaum, Partial sciatic nerve injury in the mouse as a model of neuropathic pain: behavioural and neuroanatomical correlates. Pain, (1998) 76, 215-222.
(§2) It was conducted on male OF1 mice (Charles River), of 18-20 g, n=39, by partial ligature of the sciatic nerve on the ipsilateral side. The animals are tested in the period (3-26 days) after the operation.
Measurement of hyperalgesia was carried out according to the method described by K. Hargreaves et al., A new sensitive method for measuring thermal nociception in cutaneous hyperalgesia, Pain, (1988), 32, 77-88, by using as a heat source, the “Plantar test” apparatus (Bioseb, France). The intensity of the nociceptive stimulus is calibrated to 8-10 s with an automatic stopping threshold (cut-off time) at 20 s. The average of the withdrawals of the paw induced by the heat, was measured on the ipsilateral paws (damaged nerve) and contralateral paws (intact nerve). […] Mechanical allodynia is measured as described by S. R. Chaplan et al., Quantitative assessment of tactile allodynia in the rat paw, J. Neurosci. […] The mechanical antiallodynic effect is measured by the method of Von Frey with filaments of increasing size exerting also increasing pressure.
The effect of the compound of Example 10 on mechanical allodynia is measured by the Von Frey test. […]

male OF1 mice [2] = assay: Plantar test: thermal hyperalgesia after partial ligature of the sciatic nerve
Description: as §1, §2
Measurement of hyperalgesia was carried out according to the method described by K. Hargreaves et al., A new sensitive method for measuring thermal nociception in cutaneous hyperalgesia, Pain, (1988), 32, 77-88, by using as a heat source, the “Plantar test” apparatus (Bioseb, France). The intensity of the nociceptive stimulus is calibrated to 8-10 s with an automatic stopping threshold (cut-off time) at 20 s. The average of the withdrawals of the paw induced by the heat, was measured on the ipsilateral paws (damaged nerve) and contralateral paws (intact nerve). This measurement was carried out 3 times on each paw. Mechanical allodynia is measured as described by S. R. Chaplan et al., Quantitative assessment of tactile allodynia in the rat paw, J. Neurosci. Meth. (1994), 53, 55-63. The ipsilateral (lesion) and contralateral (control) paws are tested as earlier. The mechanical antiallodynic effect is measured by the method of Von Frey with filaments of increasing size exerting also increasing pressure.
FIG. 3: Neuropathic pain model: partial ligature of the sciatic nerve (mice). Response generated by per os administration of the carrier (□) or of the compound of Example 10 (▪): removal of the paw (in second) versus time (in minutes).
Carrier: EtOH/0.5% methylcellulose (1.5/98.5)
Tests carried out at day 14 post-surgery; ipsilateral paw
Abscissa: time in minutes, ordinate: withdrawal of the paw in seconds
Plantar test: evaluation of thermal hyperalgia
Average of the contralateral paws: compound 10 at 90 min=8.3 s.

male OF1 mice [3] = assay: Formalin test (phase I), number of paw lickings after oral administration; conditions: 120 minutes after administration (FIG. 2)
From the text: A/Formalin Test (Phase I) […]
The animals (male OF1 mice) come from the Charles River breeder (France) and weigh 25-35 g at the beginning of the experiment. The weight of each mouse is taken into account for administering the product.
The test is based on the procedure described by S. HUNSKAAR et al., Formalin test in mice, a useful technique for evaluating mild analgesics, J. Neurosci. Methods […], 14, 69-75.
The mice (n=8) are individually placed in a transparent enclosure (50×25 cm) and become accustomed to this environment for 20 minutes. After this period, 20 μL of formalin (5% HCHO) in solution in saline solution (H2O, 0.9% NaCl), are injected subcutaneously on the plantar face of the right paw of the animal. A 26 syringe connected to a microsyringe is used. Each mouse is then immediately placed back into the test enclosure and pain (nociceptive) responses are measured for 5 minutes (early phase). Only the lickings of the paw are counted. […]
The analgesic action of the product is measured by the decrease in the number of lickings of the lesioned paw, as compared with the number of lickings of the animal which has received the carrier alone. […]

Row | Compound | anti-allodynic effect, maximum, as % of the maximum response (non-treated control) (male OF1 mice [1]) [%] | withdrawal of the paw, average of the contralateral paws (male OF1 mice [2]; 50 mg/kg, at 90 min, intact nerve side) [s] | maximum effect on thermal hyperalgesia (male OF1 mice [2]; p.o. 50 mg/kg, at 80 min) [%] | withdrawal of the paw (ipsilateral paw) (male OF1 mice [2]; p.o. 50 mg/kg, at 80 min, plantar test, day 14 post-surgery) [s] | decrease of thermal hyperalgesia induced by partial ligature of the sciatic nerve (male OF1 mice [2]; p.o. 50 mg/kg, period from 45 to 150 min, day 14 post-surgery, ipsilateral paw) | analgesic activity at 120 minutes (male OF1 mice [3])
1 | CSCCC(CSSCC(Cc1ccccc1)C(=O)NCC(=O)O)NC(=O)OC(C)OC(=O)C(C)C (stereo not drawn) [Example 10, 1-{1-[2-(carboxymethyl-carbamoyl)-3-phenyl-propyl-disulfanylmethyl]-3-methylsulfanyl-propylcarbamoyl-oxy}-ethyl isobutyric acid ester] | 75 | 8.3 | 100 | 8.2 ± 0.9 | 65-100% | –
2 | NH2—CH(CH2CH2SCH3)—CH2—S—S—CH2—CH(CH2C6H5)—CONH—CH2—CONH—CO—CH(CH3)—O—CO—OCH2CH3 [Compound 15] | – | – | – | – | – | no longer has any activity
